Source: US20050245397A1, “Use of nickel to correct growth disorders in plants” (priority 2004, published 2005)
Read-outs that look alike come from different tables or passages of the source.

Assays:
[1] = system: severely mouse-eared 'Desirable' pecan trees; assay type: in vivo; settings: October foliar spray till run-off, NiSO4.6H2O about 3.5 g/L or CuSO4.5H2O about 4 g/L with urea and surfactant, orchard transplants, rated following May, scale 1 = no symptoms to 10 = most severe
[2] = system: pecan trees exhibiting severe mouse-ear; assay type: in vivo; settings: early April foliar spray at late parachute stage, treatments as in Example 8, orchard transplants, subsequent shoot growth, scale 1-10
[3] = system: 1-year-old 'Desirable' pecan seedlings potted in mouse-ear orchard soil; test: October foliar copper or nickel at 0-8X on potted greenhouse pecan seedlings, mouse-ear rated in spring; assay type: in vivo, pecan [Carya illinoinensis (Wangenh.) K. Koch]; settings: autumn foliar copper 1X-8X, X = about 1.98 g copper sulfate per liter
[4] = system: pecans with mouse-ear; test: Inventors' orchard observations of soil or foliar copper, phosphorus, sulfur on mouse-ear; assay type: in vivo, pecan [Carya illinoinensis (Wangenh.) K. Koch]; settings: for effect on mouse-ear, soil application of high amounts: 1st generation orchard site
[5] = system: pecan seedlings exhibiting severe nickel deficiency, i.e., mouse-ear; assay type: in vivo, pecan [Carya illinoinensis (Wangenh.) K. Koch]; settings: foliar spray in the spring during bud break, tested 0-1000 ppm

O.O.O.O.O.O=S(=O)([O-])[O-].[Cu+2] [Copper, CuSO4.5H2O]
Mouse-ear Severity (Class) [1]: 7.6 a Class
Mouse-ear Severity (Class) ([1]; listed as copper): 7.6 Class
Mouse-ear Severity (Class) [2]: 8.1 a Class
Mouse-ear Severity (Class) ([2]; listed as copper): about 8.1 Class
effect on mouse-ear severity the following spring [3]: failed to correct mouse-ear and actually increased severity of mouse-ear as the concentration of applied copper increased
effect on mouse-ear, soil applied at time of transplanting ([4]; 2nd generation site): corrects mouse-ear on one 2nd generation site
effect on mouse-ear, foliar applications ([4]; in vivo): little or no curative influence on mouse-ear severity
effect on mouse-ear, topical application to the soil ([4]; trees with mild to moderate mouse-ear on a 1st generation site): largely cured of mouse-ear by the 3rd year

[P] [phosphorus]
effect on mouse-ear, soil application of high amounts [4]: corrected mouse-ear symptoms three years after application

S1SSSSSSS1 [sulfur]
effect on mouse-ear, soil application of high amounts [4]: corrected mouse-ear symptoms three years after application

nickel lignosulfonate
nickel concentration at which foliar application corrected mouse-ear / nickel deficiency [5]: ≥ 10 ppm
